# Assay results from patent US20120276190A1 (priority 2009, published 2012).
# Assays:
# [1] = target: CD22 (human) (UniProt P20273); assay: cell-based or functional assay
# [2] = system: ATF4 in KB3-1 cells; assay: ER stress response (ATF4 immunoblot) in KB3-1 cells; format: cell-based; conditions: 4 hours, ABT-737 10 μmol/L, DTT 10 mmol/L
# Source text: (§1) Immunoblot analysis is inadequate to detect the cellular uptake of immunotoxins, added at subnanomolar concentrations. Thus, we could not document directly that additional molecules of toxin were delivered to the cytosol. Instead, we sought other evidence that ABT-737 was directly or indirectly interacting with the ER. In various cell types, Bcl-2 family members are found associated with the ER (Oakes S A, et al., Proc Natl Acad Sci USA 2005; 102:105-10 and Scorrano L, et al., Science 2003; 300:135-9). To test if ABT-737 interacted with the ER and provoked an ER stress response, we incubated KB3-1 or DLD1 cells for 4 hours with either ABT-737 or with DTT; the latter being a well-known mediator of ER stress. Treated cell extracts were analyzed for the transcription factor ATF4 (Bernales S, Papa F R, Walter P. Annu Rev Cell Dev Biol 2006; 22:487-508). […] Overall, our results are consistent with ABT-737 acting on the ER and causing, either directly or indirectly, an increased translocation of PE- or CET-based immunotoxins to the cytosol.
# [3] = system: ATF4 in DLD1 cells; assay: ER stress response (ATF4 immunoblot) in DLD1 cells; format: cell-based; conditions: 4 hours, ABT-737 10 μmol/L, DTT 10 mmol/L
# Source text: as §1
# [4] = system: caspase 3/7 in DLD1 cells; format: cell-based
# [5] = system: SKOV3; assay: WST-1 viability of SKOV3 cells; format: cell-based; conditions: with immunotoxin, data not shown
# Protocol: The inhibition of protein synthesis in treated cells was assayed by the addition of 3H-leucine (2 μCi/mL) for 4 hours in 96-well plates. Filter mats and samples were used to count cells using a Wallac beta plate reader. Water-soluble tetrazolium-1 (WST-1; Roche) was added to 96-well plates at a final concentration of 10% and absorbance measured at 450 nm to measure cytotoxicity. Te CellTiter-Glo Luminescent Cell Viability Assay kit (Promega) was used to assay ATP. The Caspase-Glo kit from Promega was used to detect Caspase 3/7. Caspase 3 activity was measured using one of two fluorescent substrates Caspase 3 Fluorometric Assay Kit (R&D Systems) or Caspase 3 Fluorometric-KIT (Invitrogen). The results are reported in fluorescent units per microgram of cell protein. For short-exposure cell-killing assays: KB3-1 cells were seeded in six-well plates at a density of 5×10^4/mL. The next day, cells were treated for 4 hours with either immunotoxin alone, ABT-737 alone, or combinations of both as indicated. At the end of the treatment, the cells were washed with PBS, trypsinized, and re-plated and incubated for 6 more days. Finally, the cells were washed with PBS and then stained with methylene blue (0.5%) in methanol/water (50:50 by volume).
# [6] = system: KB3-1 cells; format: cell-based; conditions: with immunotoxin, data not shown
# [7] = system: Raji cells; format: cell-based
# [8] = system: H69AR cells; format: cell-based
# Sequence of UniProt P20273 (P20273 20-847): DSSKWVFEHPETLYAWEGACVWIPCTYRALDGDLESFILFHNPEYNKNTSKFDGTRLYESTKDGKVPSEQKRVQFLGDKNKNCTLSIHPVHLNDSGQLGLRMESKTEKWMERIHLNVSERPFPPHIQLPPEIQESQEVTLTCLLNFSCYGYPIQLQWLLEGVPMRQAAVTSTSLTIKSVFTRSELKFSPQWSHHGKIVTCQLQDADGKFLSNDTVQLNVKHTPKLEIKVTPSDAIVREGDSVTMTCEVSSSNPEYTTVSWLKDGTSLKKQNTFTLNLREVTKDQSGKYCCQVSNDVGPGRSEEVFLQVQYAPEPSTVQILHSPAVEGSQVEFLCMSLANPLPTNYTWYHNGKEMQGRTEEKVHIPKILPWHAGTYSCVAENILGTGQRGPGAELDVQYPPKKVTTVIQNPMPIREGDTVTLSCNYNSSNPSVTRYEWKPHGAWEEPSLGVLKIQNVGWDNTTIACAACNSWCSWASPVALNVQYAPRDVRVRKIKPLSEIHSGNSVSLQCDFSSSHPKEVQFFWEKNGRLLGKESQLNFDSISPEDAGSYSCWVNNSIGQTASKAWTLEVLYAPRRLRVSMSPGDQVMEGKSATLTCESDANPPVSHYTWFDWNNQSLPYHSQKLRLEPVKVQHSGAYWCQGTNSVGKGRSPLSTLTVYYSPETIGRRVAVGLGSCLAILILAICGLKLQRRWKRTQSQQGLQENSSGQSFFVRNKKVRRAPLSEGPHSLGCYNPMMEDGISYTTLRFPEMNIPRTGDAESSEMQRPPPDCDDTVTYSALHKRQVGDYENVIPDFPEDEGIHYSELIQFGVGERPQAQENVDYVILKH
compound,measurement,setting,value
BL22 (from UniProt P11439 278-389; P11439 406-638),total apoptosis of Raji cells in 24 hrs (Annexin V / 7-AAD flow cytometry),[1],47%
O[C@@H](CS)[C@@H](O)CS [DTT],ER stress response (ATF4),[2],strongly upregulated
same,ER stress response (ATF4),[3],strongly upregulated
"CC(C)C[C@H](NC(=O)[C@H](Cc1ccccc1)NC(=O)c1cnccn1)B(O)O [velcade, bortezomib]",apoptosis by caspase 3/7 activity,[4],increased caspase 3/7 activity
CC1(C)CCC(c2ccc(Cl)cc2)=C(CN2CCN(c3ccc(C(=O)NS(=O)(=O)c4ccc(N[C@H](CCN5CCOCC5)CSc5ccccc5)c(S(=O)(=O)C(F)(F)F)c4)cc3)CC2)C1 [ABT-263],enhancement of SKOV3 killing,[5],similarly enhanced
same,enhancement of KB3-1 killing,[6],similarly enhanced
same,"apoptosis, ABT-263 alone",[7],little or no apoptosis
same,"total apoptosis, in combination with BL22",[7],62%
same,"total apoptosis, in combination with HA22",[7],68%
same,effect of combination with HB21-PE40,[8],synergistic and leads to cell death via apoptosis
same,"sensitivity to killing, agent alone",[8],resistant
CN[C@@H]1C[C@H]2O[C@@](C)([C@@H]1OC)n1c3ccccc3c3c4c(c5c6ccccc6n2c5c31)C(=O)NC4 [staurosporine],"apoptosis, positive control for generating maximal apoptosis",[7],~74%
